Test results from patent US20220227722A1, “SPHINGOSINE 1 PHOSPHATE RECEPTOR MODULATOR” (RECEPTOS LLC, priority 2019, published 2022).
Like-named read-outs stand apart in the source and are kept apart here. Each block holds one molecule with its values, some of them ahead of it.

Key:
S1P4R [1] = target: T1, S1P4R (Homo sapiens, UniProt O95977); assay: [35S]GTPγS binding to membranes, S1P4R; assay type: biochemical
T1 construct: expressed in transfected cells; membranes
T1 sequence (O95977 1-384): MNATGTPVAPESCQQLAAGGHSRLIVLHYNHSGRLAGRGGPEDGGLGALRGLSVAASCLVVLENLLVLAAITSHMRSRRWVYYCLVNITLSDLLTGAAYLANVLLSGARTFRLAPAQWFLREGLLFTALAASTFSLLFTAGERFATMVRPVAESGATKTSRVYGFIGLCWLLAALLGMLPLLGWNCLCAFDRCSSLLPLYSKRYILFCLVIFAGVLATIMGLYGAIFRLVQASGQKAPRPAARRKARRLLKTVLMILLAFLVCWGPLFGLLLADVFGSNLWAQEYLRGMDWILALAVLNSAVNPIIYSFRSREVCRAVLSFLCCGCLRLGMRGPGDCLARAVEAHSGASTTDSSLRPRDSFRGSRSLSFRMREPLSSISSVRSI
Description: (§1) S1P1R is a GPCR that couples exclusively to the inhibitory G protein (Gαi), decreasing adenylate cyclase activity and lowering cyclic adenosine monophosphate (cAMP levels) in the cell. The potency of Compound 1 was tested against the S1P1 receptor (S1P1R) and related family members. The potency and S1P receptor selectivity were measured using two independent in vitro assays, [^35S]guanosine-5′-O-(3-thio)triphosphate ([^35S]GTPγS) and β-lactamase gene expression and activity. The GTPγS binding to membranes prepared from stable mammalian cells lines expressing recombinant human S1P receptors 1-5 (S1P1R-S1P5R) was used to pharmacologically characterize ligand interaction with the S1P receptor family members. […] Membrane-bead complexes were then pelleted by centrifugation before the bound radioactivity was quantified with a MicroBeta2® microplate scintillation counter. The radioactive counts relative to DMSO vehicle were calculated and the half maximal effective concentration (EC50) was determined using non-linear regression.

S1P5R [2] = target: T2, S1P5R (Homo sapiens, UniProt Q9H228); assay: β-lactamase gene expression and activity whole-cell assay, S1P5R; assay type: cell-based
T2 construct: expressed in transfected cells; membranes
T2 sequence (Q9H228 whole entry): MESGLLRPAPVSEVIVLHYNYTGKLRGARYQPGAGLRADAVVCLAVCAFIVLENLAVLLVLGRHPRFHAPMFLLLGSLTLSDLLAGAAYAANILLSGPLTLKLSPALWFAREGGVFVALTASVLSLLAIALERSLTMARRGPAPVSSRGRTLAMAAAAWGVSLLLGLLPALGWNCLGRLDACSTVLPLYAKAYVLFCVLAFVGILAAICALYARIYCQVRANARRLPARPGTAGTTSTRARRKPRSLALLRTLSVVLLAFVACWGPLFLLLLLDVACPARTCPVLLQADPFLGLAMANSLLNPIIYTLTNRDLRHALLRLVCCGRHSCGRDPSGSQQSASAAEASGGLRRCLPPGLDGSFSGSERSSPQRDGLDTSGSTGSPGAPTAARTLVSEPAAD
Description: (§2) Up-regulation of β-lactamase gene expression and activity were used as a whole-cell functional readout of S1P receptor activation. […] The respective β-lactamase activity was then determined using a fluorescence resonance energy transfer (FRET)-based β-lactamase fluorescent substrate (LiveBLAzer™-FRET B/G Loading Kit CCF4-AM) according to manufacturer's instructions, and incubated with cells for 2 hours at RT. Plates were read using a SpectraMax M5 Multi-Mode microplate reader and the relative response to DMSO vehicle calculated for the EC50 determination using non-linear regression.

S1P3R [3] = target: T3, S1P3R (Homo sapiens, UniProt Q99500); assay: [35S]GTPγS binding to membranes, S1P3R; assay type: biochemical
T3 construct: expressed in transfected cells; membranes
T3 sequence (Q99500 whole entry): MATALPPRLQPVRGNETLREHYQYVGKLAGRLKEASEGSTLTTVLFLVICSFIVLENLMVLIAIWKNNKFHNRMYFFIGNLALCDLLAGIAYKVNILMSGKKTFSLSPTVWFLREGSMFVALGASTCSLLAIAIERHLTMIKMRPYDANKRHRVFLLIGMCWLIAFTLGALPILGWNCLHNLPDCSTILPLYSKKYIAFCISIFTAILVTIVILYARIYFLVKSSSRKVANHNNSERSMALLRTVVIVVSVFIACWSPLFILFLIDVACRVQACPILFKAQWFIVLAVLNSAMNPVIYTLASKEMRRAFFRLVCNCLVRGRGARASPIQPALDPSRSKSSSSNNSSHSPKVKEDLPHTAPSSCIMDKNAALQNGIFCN
Description: as §1

S1P3R [4] = target: T3, S1P3R; assay: β-lactamase gene expression and activity whole-cell assay, S1P3R; assay type: cell-based; settings: stable cells expressing recombinant human S1P3R
Description: as §2

S1P1R [5] = target: T4, S1P1R (Homo sapiens, UniProt P21453); assay: [35S]GTPγS binding to membranes, S1P1R; assay type: biochemical
T4 construct: expressed in transfected cells; membranes
T4 sequence (P21453 whole entry): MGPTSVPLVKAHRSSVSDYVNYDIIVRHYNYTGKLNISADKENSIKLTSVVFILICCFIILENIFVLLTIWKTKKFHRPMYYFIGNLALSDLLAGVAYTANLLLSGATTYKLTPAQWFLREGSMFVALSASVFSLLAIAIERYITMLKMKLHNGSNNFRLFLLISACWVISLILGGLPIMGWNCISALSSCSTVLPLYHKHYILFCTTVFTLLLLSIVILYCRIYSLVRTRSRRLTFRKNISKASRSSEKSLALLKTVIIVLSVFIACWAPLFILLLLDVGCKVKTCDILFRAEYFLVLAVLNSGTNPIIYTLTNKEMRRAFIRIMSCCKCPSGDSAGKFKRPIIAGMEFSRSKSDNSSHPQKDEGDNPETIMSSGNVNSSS
Description: as §1

S1P4R [6] = target: T1, S1P4R; assay: β-lactamase gene expression and activity whole-cell assay, S1P4R; assay type: cell-based; settings: stable cells expressing recombinant human S1P4R
Description: as §2

[7] = Compound 1 single dose pharmacokinetics in the rat; assay type: in vivo; settings: Sprague-Dawley, plasma; for AUC(0-t): read-out: AUC0-24; for half-life: read-out: t½ (converted)
Description: Plasma samples (50 μL) were aliquoted into a 96 deep-well polypropylene plate (2 mL/well) and 5 μL of dimethyl sulfoxide (DMSO) was added. Samples expected to be above the upper limit of quantitation (ULOQ) were diluted with plasma. Standard curves were prepared by mixing 5 μL of the test compound in DMSO at 10 times the concentration which was added to 50 μL of plasma in a 96 deep-well polypropylene plate. For example, for a 0.3 μM standard, the 10×DMSO concentration of the test compound was 3 μM. Standard curves were prepared using analytical standards of Compound 1. Protein was precipitated from study samples and standards by the addition of 150 μL of acetonitrile. The plate was vortexed to ensure complete precipitation of protein. The precipitated protein was pelleted by centrifugation at 4,000 rpm for 10 min at 20° C. and the clear supernatant was transferred to a clean 96-well plate and centrifuged again under the same conditions to pellet any transferred solid material.
Samples (7 μL) were introduced to a Shimadzu HPLC (LC-20ADXR) with a SIL-30ACMP autosampler (Shimadzu). The mobile phase was a gradient using 0.1% formic acid in water and 0.1% formic acid in acetonitrile. The column used was a Phenomenex Kinetic C18 100 A 2.6μ30×3 mm (PN 946975-906). The CTO-20AC column oven (Shimadzu) was set at 40° C. Prepared samples were usually analyzed in order of lowest to highest concentration for standards and reverse order of time-points for study samples. Study samples were bracketed by full standard curves. Typically at least 6 standards were used for quantitation with a percent accuracy of +/−15% for all standards except at the lower level of quantitation (LLOQ) where a percent accuracy of +/−20% was allowed.
An ABSciex Instruments Triple Quad 5500 Mass Spectrometer (Analyst 1.6.3) was used for detection in the MRM mode. Ionization was achieved by positive or negative electrospray with a source temperature of 600° C. Negative and positive mode analysis was performed in the same injection. Standard samples were usually analyzed in order of lowest to highest concentration. Typically at least six standards were used for quantification with a percent accuracy of +/−15% for all standards except at the LLOQ where a percent accuracy of +/−20% was allowable. Study samples were analyzed in reverse chronological order bracketed with bracketing standard curves.
Blood concentration versus time data are analyzed using non-compartmental methods (WinNonlin version 5.2; model 200 for oral dosing and model 202 for intravenous infusion). Absolute oral bioavailability (%) is calculated using the following expression: (Oral AUC×IV Dose)/(IV AUC×Oral Dose)×100.
Compound 1 was administered in a formulation of 10% volume/volume (v/v) DMSO and 5% v/v Tween 20 in water by IV administration (10 mL/kg) or 0.5% weight/volume (w/v) CMC in water by oral gavage (10 mL/kg). Animals received 0.2 mg/kg as the IV dose or 2 mg/kg/day orally as a single administration. Blood samples were collected at 1, 5, and 30 minutes, 2, 4, 8, 10, 24, […], 48, and 72 hours after IV dosing and 1, 2, 3, 4, 6, 8, 10, 12, 24, 48, and 72 hours following oral dosing. Blood was collected into tubes containing the anti-coagulant K2EDTA and processed to plasma. Plasma concentrations for each analyte were determined using a qualified LC-MS/MS method.

[8] = Clinical PK, Phase 1 study of ozanimod HCl in relapsing remitting multiple sclerosis subjects; assay type: in vivo, human; settings: for Tmax: read-out: Median Tmax; for % of total agonist exposure at steady state: total agonist = sum of ozanimod and active metabolites, ozanimod HCl PO QD
Excerpt: Serial blood PK samples were collected on Days 1 and the last day of dosing.

S1P2R = target: T5, S1P2R (Homo sapiens, UniProt O95136); assay: [35S]GTPγS binding to membranes, S1P2R; assay type: biochemical
T5 construct: expressed in transfected cells; membranes
T5 sequence (O95136 whole entry): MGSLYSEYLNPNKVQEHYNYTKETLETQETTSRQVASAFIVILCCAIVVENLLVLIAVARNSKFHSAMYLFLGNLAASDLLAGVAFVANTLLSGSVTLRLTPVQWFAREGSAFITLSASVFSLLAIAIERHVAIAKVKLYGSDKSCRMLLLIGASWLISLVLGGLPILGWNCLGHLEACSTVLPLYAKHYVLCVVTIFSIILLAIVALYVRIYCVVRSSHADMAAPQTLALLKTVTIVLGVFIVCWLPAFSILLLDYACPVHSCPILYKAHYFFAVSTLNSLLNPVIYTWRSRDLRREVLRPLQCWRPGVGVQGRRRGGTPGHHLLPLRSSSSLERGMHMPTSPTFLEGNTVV
Description: as §1

S1P1R [9] = target: T4, S1P1R; assay: β-lactamase gene expression and activity whole-cell assay, S1P1R; assay type: cell-based; settings: stable cells expressing recombinant human S1P1R
Description: as §2

circulating lymphocytes = assay: Assessment of circulating lymphocyte counts after single oral dose; assay type: in vivo, Sprague Dawley rats; settings: rat, 2 mg/kg oral single dose
Description: Whole blood samples were collected from acclimated, conscious male Sprague Dawley rats in the fed state using percutaneous jugular vein puncture at pre-dose and 3, 6 and 24 hours after single oral dose administration of vehicle or test compound. Blood samples were collected into K2EDTA tubes, thoroughly mixed and stored on wet ice until analyzed. Circulating lymphocyte counts were assessed by two methods from individual aliquots of the same samples. Total lymphocyte counts were determined in a standard hematology panel on a calibrated analyzer (Test #416; Horiba Medical ABX Pentra XL 80) and by in-house flow cytometry using fluorescent-activated cell sorting (FACS) analysis to determine the number of CD4+, CD8+ and B220+ lymphocytes (ThermoFisher Attune NxT flow cytometer). Data are expressed as follows for absolute lymphocyte counts (hematology analyzer), the individual lymphocyte subtypes (CD4+, CD8+ and B220+) and the sum of the individual lymphocyte subtypes (flow cytometry). • Number of lymphocytes per μL whole blood. • Percentage change relative to each group's pre-dose baseline at each time point
Whole blood samples (K2EDTA) were analyzed on the flow cytometer (ThermoFisher Attune NxT) using rat antibodies, as detailed below. The baseline and 3 hour post-dose samples were analyzed on the same day as collection. The 6 hour post-dose samples were analyzed after overnight storage at 4° C. (on wet ice in a 2-8° C. fridge) and on the same day as the 24 hour post-dose samples were collected and analyzed.
The oral dose level of 2 mg/kg of Compound 1 administered to the animals was intended to induce a significant reduction (˜≥60%) in the number of circulating lymphocyte. Following acclimation, blood samples were serially collected from the jugular vein of conscious Sprague Dawley rats prior to dosing and 3 hours, 6 and 24 hours after administration. The absolute number of circulating lymphocytes was quantified in whole blood samples using a hematology analyzer and the CD4^+, CD8^+ and B220^+ lymphocyte subtypes by flow cytometry. The plasma concentrations for each compound were quantified with liquid chromatography, tandem mass spectrometry.

S1P5R [10] = target: T2, S1P5R; assay: [35S]GTPγS binding to membranes, S1P5R; assay type: biochemical
Description: as §1

[11] = Table 4 comparative selectivity, agonist values, read-out: EC50 S1P4
[12] = Table 4 comparative selectivity, agonist values, read-out: EC50 S1P3
[13] = Table 4 comparative selectivity, agonist values, read-out: EC50 S1P2

EC50 (S1P4R [1]; [11]): > 10000 nM
EC50 (S1P4R [1]; recombinant human S1P4R membranes, read-out: EC50 S1P4R GTPγS): > 10000 nM
EC50 (S1P5R [2]; stable cells expressing recombinant human S1P5R): 6.9 nM
selectivity for S1P5R over S1P2R, S1P3R and S1P4R (S1P5R [2]; β-lactamase readout): greater than 200 fold
EC50 (S1P3R [3]; [12]): > 5000 nM
EC50 (S1P3R [3]; recombinant human S1P3R membranes, read-out: EC50 S1P3R GTPγS): > 5000 nM
EC50 (S1P3R [4]): > 10000 nM
selectivity for S1P1R over S1P2R, S1P3R and S1P4R (S1P1R [5]; [35S]GTPγS binding activity readout): greater than 1000 fold
EC50 (S1P1R [5]; recombinant human S1P1R membranes): 2.1 nM
EC50 (S1P4R [6]): > 10000 nM
Cmax ([7]; 0.2 mg/kg IV, single dose): 743 nM
Tmax ([7]; 0.2 mg/kg IV, single dose): 0.02 h
AUC(0-t) ([7]; 0.2 mg/kg IV, single dose): 0.386 µM·h
half-life ([7]; 0.2 mg/kg IV, single dose): 1.62 h
Cmax ([7]; 2.0 mg/kg oral, single dose): 14.8 nM
Tmax ([7]; 2.0 mg/kg oral, single dose): 3 h
Vd/F ([7]; 2.0 mg/kg oral, single dose): 292 L/kg
AUC(0-t) ([7]; 2.0 mg/kg oral, single dose): 0.0954 µM·h
half-life ([7]; 2.0 mg/kg oral, single dose): 3.73 h
bioavailability ([7]; 2.0 mg/kg oral vs 0.2 mg/kg IV): 2.5%
Peak-to-trough ratio (at steady state) ([8]; RMS subjects, ozanimod HCl 0.5 or 1 mg PO QD, steady state): 1.3- to 1.6-fold
Tmax ([8]; human, blood, po): 6 to 10 h
% of total agonist exposure at steady state [8]: 85% to 93%
EC50 (S1P2R; [13]): > 10000 nM
EC50 (S1P2R; recombinant human S1P2R membranes, read-out: EC50 S1P2R GTPγS): > 10000 nM
EC50 (S1P1R [9]): 0.04 nM
selectivity for S1P5R over S1P2R, S1P3R and S1P4R (S1P5R [10]; GTPγS readout): greater than 200 fold
EC50 (S1P5R [10]; recombinant human S1P5R membranes, read-out: EC50 S1P5R GTPγS): 17.9 nM
Compound: CC(C)Oc1ccc(-c2nc(-c3cccc4c3CCC4=O)no2)cc1C#N [Compound 1, 2-isopropoxy-5-(3-(1-oxo-2,3-dihydro-1H-inden-4-yl)-1,2,4-oxadiazol-5-yl)benzonitrile]
time of maximum effect on lymphocyte counts (circulating lymphocytes): by six hours after administration
effect on lymphocyte counts at the 24 hour time-point (circulating lymphocytes; 24 hours): without significant effect
reduction of B220+ lymphocyte population relative to pre-dose (circulating lymphocytes; flow cytometry): 35%
reduction of CD4+ lymphocyte population relative to pre-dose (circulating lymphocytes; flow cytometry): 68%
reduction of CD8+ lymphocyte population relative to pre-dose (circulating lymphocytes; flow cytometry): 62%
reduction of total circulating lymphocyte counts (total number of CD4+, CD8+ and B220+) relative to pre-dose (circulating lymphocytes; flow cytometry): 52%
fewer lymphocytes relative to pre-dose values (circulating lymphocytes; hematology analyzer): 44%

EC50 (S1P4R [1]; [11]): 2040 nM
EC50 (S1P3R [3]; [12]): > 5000 nM
half-life ([8]; human, blood, po, 1 mg, read-out: Mean t1/2 (at steady state)): 15 to 23 h
Tmax ([8]; human, blood, po): 6 to 8 h
% of total agonist exposure at steady state [8]: Ozanimod: 3% to 6%
EC50 (S1P2R; [13]): > 10000 nM
EC50 (S1P5R [10]; Table 4 comparative selectivity, agonist values, read-out: EC50 S1P5): 5.1 nM
Compound: CC(C)Oc1ccc(-c2nc(-c3cccc4c3CC[C@@H]4NCCO)no2)cc1C#N [Ozanimod, reference compound]
